Assay results as given in EP0326329B1, “Quinazoline derivatives useful as insecticides” (Dow AgroSciences LLC, priority 1988, dated 1989).
Like-named read-outs stand apart in the source and are kept apart here.

Legend:
Format in all cases: in vivo
[1] = test system: Southern corn rootworm (Diabrotica undecimpuctata howardi Barber); experiment: Mite/insect screen, soil treatment (CRW); conditions: Diabrotica, percent mortality, soil treatment, read-out: CRW RESULTS %
Method in brief: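 Compounds dissolved in acetone/alcohol (50:50) with Toximul R/S emulsifiers, diluted with water. Soil (15 g, with presoaked corn seed) treated with 1 mL test solution, dried 6–12 h, then five 2–3 instar larvae added; held at 23°C. Percent mortality and phytotoxicity scored after standard exposure periods.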

[2] = test system: Twospotted spider mites (Tetranychus urticae Koch); experiment: Mite/insect screen, sprayed squash cotyledons (SM); conditions: Tetranychus urticae, percent mortality, read-out: SM RESULTS %
Method in brief: (§1)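 Compounds dissolved in acetone/alcohol with TOXIMUL R/S emulsifiers, diluted with water to test concentrations, and sprayed to runoff on both leaf surfaces at 10 psi, then dried 1 h. Excised treated squash leaves given southern armyworm larvae; aphid and spider mite tests on sprayed squash cotyledons. Percent mortality and phytotoxicity scored after standard exposure.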

[3] = test system: Pyricularia oryzae (rice blast); conditions: disease control rating, foliar spray, host rice; 400 ppm (+++ at 100 ppm)
[4] = test system: melon aphids (Aphis gossypii Glover); experiment: Mite/insect screen, sprayed squash cotyledons (MA); conditions: Aphis gossypii, percent mortality, read-out: MA RESULTS %
Method in brief: as §1

[5] = test system: Botrytis cinerea (gray mold); experiment: Greenhouse Test 1, foliar spray fungicide screen (GRAY MOLD), host grape berries; conditions: disease control rating, 400 ppm (+++ at 100 ppm)
[6] = test system: Puccinia recondita tritici (leaf rust); experiment: Greenhouse Test 1, foliar spray fungicide screen (LEAF RUST), host wheat; conditions: disease control rating, 400 ppm (+++ at 100 ppm)
[7] = test system: Pseudoperonospora cubensis (downy mildew); experiment: Greenhouse Test 1, foliar spray fungicide screen (DOWN MDEW), host squash; conditions: disease control rating, 400 ppm (+++ at 100 ppm)
[8] = test system: Erysiphe graminis tritici (powdery mildew); experiment: Greenhouse Test 1, foliar spray fungicide screen (POWD MDEW), host wheat; conditions: disease control rating, 400 ppm (+++ at 100 ppm)
[9] = test system: southern armyworm (Spodopetra eridania Cramer); experiment: Mite/insect screen, sprayed squash leaves (SAW); conditions: Spodoptera eridania, percent mortality, read-out: SAW RESULTS %
Method in brief: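 Percent mortality and phytotoxicity are the read-outs, assessed after standard exposure periods. Test solutions, made in 50:50 acetone/alcohol with two sulfonate/nonionic emulsifier blends and diluted in water, are sprayed to runoff on both leaf surfaces, which then dry for one hour.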

| SMILES | mortality at 12 ppm ([1]; CRW rate 12.00 ppm) [%] | mortality at 24 ppm ([1]; CRW rate 24.00 ppm) [%] | mortality at 200 ppm ([2]; spray rate 200 ppm) [%] | mortality at 400 ppm ([2]; spray rate 400 ppm) [%] | RICE BLAST [3] | mortality at 200 ppm ([4]; spray rate 200 ppm) [%] | mortality at 400 ppm ([4]; spray rate 400 ppm) [%] | GRAY MOLD [5] | LEAF RUST [6] | DOWN MDEW [7] | POWD MDEW [8] | mortality at 200 ppm ([9]; spray rate 200 ppm) [%] | mortality at 400 ppm ([9]; spray rate 400 ppm) [%] | other results |
| --- | --- | --- | --- | --- | --- | --- | --- | --- | --- | --- | --- | --- | --- | --- |
| CCOc1ccc(CCOc2ncnc3c(F)cccc23)cc1 [Example 170, 4-[2-(4-ethoxyphenyl)ethoxy]-8-fluoroquinazoline] | 0 | 0 | 20 | 100 | +++ (+++ = 90-100% control at 100 ppm) | 80 | 100 | - (- = 0-19% control at 400 ppm) | +++ (+++ = 90-100% control at 100 ppm) | +++ (+++ = 90-100% control at 100 ppm) | +++ (+++ = 90-100% control at 100 ppm) | 0 | 100 |  |
| Cc1ccccc1CCOc1ncnc2ccccc12 [Example 103, 4-[2-(2-methylphenyl)ethoxy]quinazoline] |  | 0 |  | 0 | + (+ = 20-89% control at 400 ppm) |  | 0 | - (- = 0-19% control at 400 ppm) | +++ (+++ = 90-100% control at 100 ppm) | + (+ = 20-89% control at 400 ppm) | + (+ = 20-89% control at 400 ppm) |  | 0 |  |
| CC(C)c1ccc(CCCOc2ncnc3c(F)cccc23)cc1 [Example 152, 8-fluoro-4-[3-[4-(1-methylethyl)phenyl]propoxy]quinazoline] | 0 | 0 | 90 | 60 | + (+ = 20-89% control at 400 ppm) | 40 | 80 | - (- = 0-19% control at 400 ppm) | + (+ = 20-89% control at 400 ppm) | + (+ = 20-89% control at 400 ppm) | +++ (+++ = 90-100% control at 100 ppm) | 0 | 0 |  |
| CC(C)c1ccc(CCOc2ncnc3c(F)cccc23)cc1 [Example 16, 8-fluoro-4-[2-[4-(i-propyl)phenyl]ethoxy]-quinazoline] |  | 0 |  | 0 | +++ (+++ = 90-100% control at 100 ppm) |  | 0 | - (- = 0-19% control at 400 ppm) | +++ (+++ = 90-100% control at 100 ppm) | +++ (+++ = 90-100% control at 100 ppm) | +++ (+++ = 90-100% control at 100 ppm) |  | 0 |  |
| CC(C)c1ccccc1CCOc1ncnc2ccccc12 [Example 135, 4-[2-[2-(1-methylethyl)phenyl]ethoxy]quinazoline] | 0 | 0 | 0 | 0 | +++ (+++ = 90-100% control at 100 ppm) | 0 | 0 | - (- = 0-19% control at 400 ppm) | +++ (+++ = 90-100% control at 100 ppm) | +++ (+++ = 90-100% control at 100 ppm) | +++ (+++ = 90-100% control at 100 ppm) | 0 | 0 |  |
| c1ccc2c(CCNc3ncnc4ccccc34)cccc2c1 [Example 23, N-[2-(1-naphthyl)ethyl]-4-quinazolinamine] | 0 | 0 | 0 | 0 | + (+ = 20-89% control at 400 ppm) | 0 | 0 | - (- = 0-19% control at 400 ppm) | + (+ = 20-89% control at 400 ppm) | + (+ = 20-89% control at 400 ppm) | - (- = 0-19% control at 400 ppm) | 0 | 0 |  |
| CCOc1ccc(CCCOc2ncnc3c(F)cccc23)cc1 [Example 125, 8-fluoro-4-[3-[4-ethoxyphenyl]propoxy]quinazoline] | 0 | 0 | 0 | 0 | + (+ = 20-89% control at 400 ppm) | 0 | 0 | - (- = 0-19% control at 400 ppm) | + (+ = 20-89% control at 400 ppm) | + (+ = 20-89% control at 400 ppm) | + (+ = 20-89% control at 400 ppm) | 0 | 0 |  |
| OC(CNc1ncnc2ccccc12)c1ccc2ccccc2c1 (stereo not drawn) [Example 105, α-[(4-quinazolinylamino)methyl]-2-naphthalenemethanol] |  | 0 |  | 0 | + (+ = 20-89% control at 400 ppm) |  | 0 | - (- = 0-19% control at 400 ppm) | ++ (++ = 90-100% control at 400 ppm) | - (- = 0-19% control at 400 ppm) | - (- = 0-19% control at 400 ppm) |  | 0 |  |
| CC(COc1ncnc2c(F)cccc12)c1ccc(-c2ccccc2)cc1 (stereo not drawn) [Example 199, 8-fluoro-4-[2-(1,1'-biphenyl)4-ylpropoxy]quinazoline] |  |  |  |  | + (+ = 20-89% control at 400 ppm) |  |  | - (- = 0-19% control at 400 ppm) | +++ (+++ = 90-100% control at 100 ppm) | + (+ = 20-89% control at 400 ppm) | +++ (+++ = 90-100% control at 100 ppm) |  |  | mortality at 12 ppm ([1]; corn rootworm, CRW RATE 12.00 PPM): 0%; mortality at 24 ppm ([1]; corn rootworm, CRW RATE 24.00 PPM): 0%; mortality at 200 ppm ([2]; twospotted spider mites, sprayed squash cotyledons, RATE 200 PPM): 100%; mortality at 400 ppm ([2]; twospotted spider mites, sprayed squash cotyledons, RATE 400 PPM): 0%; mortality at 200 ppm ([4]; melon aphids, sprayed squash cotyledons, RATE 200 PPM): 100%; mortality at 400 ppm ([4]; melon aphids, sprayed squash cotyledons, RATE 400 PPM): 0%; mortality at 200 ppm ([9]; Southern armyworm, sprayed squash leaves, RATE 200 PPM): 0%; mortality at 400 ppm ([9]; Southern armyworm, sprayed squash leaves, RATE 400 PPM): 60% |
| Clc1cccc2c(NCCc3cccc(Oc4ccccc4)c3)ncnc12 [Example 166, 8-chloro-N-[2-(3-phenoxyphenyl)ethyl]-4-quinazolinamine] | 0 | 0 | 0 | 0 | ++ (++ = 90-100% control at 400 ppm) | 0 | 60 | - (- = 0-19% control at 400 ppm) | +++ (+++ = 90-100% control at 100 ppm) | + (+ = 20-89% control at 400 ppm) | + (+ = 20-89% control at 400 ppm) | 0 | 0 |  |
| Oc1ccc(CCOc2ncnc3ccccc23)cc1 [Example 115, 4-[2-(4-hydroxyphenyl)ethoxy]quinazoline] | 0 | 0 | 0 | 0 | + (+ = 20-89% control at 400 ppm) | 0 | 0 | - (- = 0-19% control at 400 ppm) | +++ (+++ = 90-100% control at 100 ppm) | + (+ = 20-89% control at 400 ppm) | + (+ = 20-89% control at 400 ppm) | 0 | 0 |  |
| Cc1ccc2ncnc(NCCc3cccc(Oc4ccccc4)c3)c2c1 [Example 190, 6-methyl-N-[2-(3-phenoxyphenyl)ethyl]-4-quinazolinamine] | 0 | 0 | 80 | 0 | +++ (+++ = 90-100% control at 100 ppm) | 40 | 0 | - (- = 0-19% control at 400 ppm) | +++ (+++ = 90-100% control at 100 ppm) | +++ (+++ = 90-100% control at 100 ppm) | +++ (+++ = 90-100% control at 100 ppm) | 0 | 0 |  |
